The values below come from ChEMBL document CHEMBL1201862, “PubChem BioAssay data set” (2004).

Activity calls are given as the source filed them.

The EC50 is the concentration at which the effect is half-maximal. Broadly, the IC50 is the point on the concentration scale where inhibition reaches its midpoint. A word on the AC50: it is the midpoint of the concentration-response curve, whichever way the signal moves.

The nature of assay [1]: Luminescence Cell-Based Dose Confirmation HTS to Identify Inhibitors of Platelet Dense Granule Release. [Related pubchem assays: 1663 (Primary HTS), 1678 (Summary of Project)]. The format is functional.
A short description of assay [2]: inhibitors of intracellular T. cruzi replication, confirmation, NIH3T3 host cells, beta-gal luminescence (AID 2044).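 Further: intracellular parasites grown in NIH/3T3 mouse fibroblasts as host cells; luminescent beta-galactosidase reporter signal from transgenic T. cruzi replicating inside host cells; inhibitors lower the luminescence signal.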 It counts as functional, cell-based.
Assay [3] addresses Polyadenylate-binding protein 1 (Homo sapiens, UniProt P11940). The assay is described as follows: PABP poly(A) RNA binding inhibitors, primary screen, biochemical, fluorescence polarization, uHTS (AID 2014). (In general: Fluorescence polarisation rises when a labelled molecule tumbles more slowly, as on binding a larger partner.)
The target in assay [4] is DNA dC->dU-editing enzyme APOBEC-3A (Homo sapiens, UniProt P31941). The experiment in a line: Dose Response confirmation of small molecule APOBEC3A DNA Deaminase Inhibitors via a fluorescence-based single-stranded DNA deaminase assay. [Related pubchem assays (depositor defined):AID493011, AID493024]. The format is functional.
DNA dC->dU-editing enzyme APOBEC-3A, sequence (P31941 whole entry): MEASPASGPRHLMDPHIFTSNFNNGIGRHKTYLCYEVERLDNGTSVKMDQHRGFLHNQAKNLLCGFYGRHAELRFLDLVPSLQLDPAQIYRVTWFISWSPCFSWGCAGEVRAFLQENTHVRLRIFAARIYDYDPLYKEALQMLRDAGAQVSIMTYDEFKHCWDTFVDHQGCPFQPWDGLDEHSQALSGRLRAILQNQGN
Assay [5] can be described thus: cytotoxicity in HEK-293T cells, dose response, cytotoxicity control for TCR NF-kB inhibitor project, luminescence, T-cell screen hits (AID 489026).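 Further: cells exposed to compound about 14 hours before the viability readout.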 The format is functional, cell-based.
Assay [6] deals with Luciferin 4-monooxygenase (Photinus pyralis, UniProt P08659). The assay is described as follows: firefly luciferase enzyme inhibitors, dose response, biochemical, luminescence (AID 1891).
The target in assay [7] is T1, Short transient receptor potential channel 4 (Mus musculus, UniProt Q9QUQ5).
T1 sequence (Q9QUQ5 whole entry): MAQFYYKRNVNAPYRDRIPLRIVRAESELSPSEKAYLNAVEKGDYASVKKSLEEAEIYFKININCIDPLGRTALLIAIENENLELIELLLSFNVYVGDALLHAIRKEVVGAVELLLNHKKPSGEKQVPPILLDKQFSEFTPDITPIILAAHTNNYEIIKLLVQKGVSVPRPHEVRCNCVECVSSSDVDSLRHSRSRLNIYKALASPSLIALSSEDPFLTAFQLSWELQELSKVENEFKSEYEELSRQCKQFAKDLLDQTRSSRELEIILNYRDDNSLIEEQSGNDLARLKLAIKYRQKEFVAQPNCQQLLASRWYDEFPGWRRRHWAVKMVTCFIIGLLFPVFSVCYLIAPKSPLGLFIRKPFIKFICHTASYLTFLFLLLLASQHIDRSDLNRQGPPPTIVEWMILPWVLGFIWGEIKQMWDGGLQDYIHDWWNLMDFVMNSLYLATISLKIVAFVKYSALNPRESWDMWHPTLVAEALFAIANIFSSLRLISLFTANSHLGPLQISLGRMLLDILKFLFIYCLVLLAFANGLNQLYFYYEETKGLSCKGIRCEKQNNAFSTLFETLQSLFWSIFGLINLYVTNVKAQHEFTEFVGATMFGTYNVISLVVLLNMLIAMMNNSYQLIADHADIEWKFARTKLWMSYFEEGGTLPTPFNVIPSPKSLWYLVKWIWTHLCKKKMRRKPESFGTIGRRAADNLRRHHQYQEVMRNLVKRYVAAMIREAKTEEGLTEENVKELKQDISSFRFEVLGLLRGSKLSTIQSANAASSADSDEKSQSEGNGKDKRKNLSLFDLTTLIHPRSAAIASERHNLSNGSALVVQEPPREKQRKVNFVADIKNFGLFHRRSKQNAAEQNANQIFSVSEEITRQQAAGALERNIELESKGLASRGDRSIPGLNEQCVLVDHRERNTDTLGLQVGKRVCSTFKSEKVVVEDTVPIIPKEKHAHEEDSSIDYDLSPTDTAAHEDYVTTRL
The experiment in a line: mouse TRPC4 channel inhibitors, dose response, cell-based, HEK293 TRPC4/mu-opioid, Fluo-4 calcium (AID 434942).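 Further: potency of inhibitors blocking the TRPC4 calcium response.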 The format is functional.

The target in assay [8] is DNA dC->dU-editing enzyme APOBEC-3G (Homo sapiens, UniProt Q9HC16). It counts as functional.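 Further: Dose-response counterscreen measuring inhibition of APOBEC3G DNA deaminase activity, run while confirming APOBEC3A inhibitors.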
DNA dC->dU-editing enzyme APOBEC-3G, sequence (Q9HC16 whole entry): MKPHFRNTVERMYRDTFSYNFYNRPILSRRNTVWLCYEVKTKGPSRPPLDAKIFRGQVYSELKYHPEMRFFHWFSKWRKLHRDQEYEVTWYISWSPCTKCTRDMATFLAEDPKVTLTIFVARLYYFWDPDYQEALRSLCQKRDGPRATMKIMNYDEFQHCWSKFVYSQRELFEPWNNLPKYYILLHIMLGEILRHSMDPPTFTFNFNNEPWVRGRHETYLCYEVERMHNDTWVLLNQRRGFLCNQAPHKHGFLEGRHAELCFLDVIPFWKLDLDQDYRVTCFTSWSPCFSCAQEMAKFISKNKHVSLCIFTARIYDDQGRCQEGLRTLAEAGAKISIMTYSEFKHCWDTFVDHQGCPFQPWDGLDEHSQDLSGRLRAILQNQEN
The nature of assay [9]: cytotoxicity toward NIH3T3 fibroblasts, dose response, counter-screen, cell-based, ATP luminescence, mouse fibroblasts (AID 2010).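 Further: cells exposed to compound for about 90 hours before reading.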 It counts as functional. For orientation: A counterscreen serves to expose hits that act by an unwanted route or on another target.
The target of assay [10] is Eukaryotic translation initiation factor 4H (Homo sapiens, UniProt Q15056). The experiment in a line: human eIF4H binding inhibitors, primary screen, translation initiation inhibitor project, biochemical, uHTS, fluorescence polarization (AID 2012).
Assay [11] concerns the target Cyclin-dependent kinase 5/CDK5 activator 1 (Homo sapiens, UniProt Q00535). The experiment in a line: CDK5/p35 kinase inhibitors, dose response, biochemical, cherry-picked samples, set 2 (AID 504545).
In assay [12] the target is Scavenger receptor class B member 1 (Mus musculus, UniProt Q61009). The experiment in a line: inhibitors of SR-BI mediated HDL lipid uptake, dose response, ldlA[mSR-BI] cells, fluorescence, cherry pick (AID 493194).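 Further: cellular uptake of fluorescent DiI-labeled HDL measured as cell fluorescence.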 It counts as functional, cell-based.
Scavenger receptor class B member 1, sequence (Q61009 whole entry): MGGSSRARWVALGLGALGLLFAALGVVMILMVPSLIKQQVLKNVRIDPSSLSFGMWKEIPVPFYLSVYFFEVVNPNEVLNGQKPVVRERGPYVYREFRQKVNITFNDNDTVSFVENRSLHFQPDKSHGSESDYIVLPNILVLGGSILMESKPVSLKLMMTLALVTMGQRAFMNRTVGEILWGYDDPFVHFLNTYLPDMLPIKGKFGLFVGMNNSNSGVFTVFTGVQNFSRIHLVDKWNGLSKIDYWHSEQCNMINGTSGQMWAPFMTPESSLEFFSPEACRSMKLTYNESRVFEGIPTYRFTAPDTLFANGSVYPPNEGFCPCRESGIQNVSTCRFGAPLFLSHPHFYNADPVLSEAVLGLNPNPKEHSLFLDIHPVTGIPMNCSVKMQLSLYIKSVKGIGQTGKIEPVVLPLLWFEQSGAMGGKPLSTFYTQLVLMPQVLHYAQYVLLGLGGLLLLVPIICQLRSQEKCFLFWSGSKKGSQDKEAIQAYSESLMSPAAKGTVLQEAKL
The target in the next assay is T2, Hexokinase HKDC1 (Homo sapiens, UniProt Q2TB90).
T2 sequence (Q2TB90 whole entry): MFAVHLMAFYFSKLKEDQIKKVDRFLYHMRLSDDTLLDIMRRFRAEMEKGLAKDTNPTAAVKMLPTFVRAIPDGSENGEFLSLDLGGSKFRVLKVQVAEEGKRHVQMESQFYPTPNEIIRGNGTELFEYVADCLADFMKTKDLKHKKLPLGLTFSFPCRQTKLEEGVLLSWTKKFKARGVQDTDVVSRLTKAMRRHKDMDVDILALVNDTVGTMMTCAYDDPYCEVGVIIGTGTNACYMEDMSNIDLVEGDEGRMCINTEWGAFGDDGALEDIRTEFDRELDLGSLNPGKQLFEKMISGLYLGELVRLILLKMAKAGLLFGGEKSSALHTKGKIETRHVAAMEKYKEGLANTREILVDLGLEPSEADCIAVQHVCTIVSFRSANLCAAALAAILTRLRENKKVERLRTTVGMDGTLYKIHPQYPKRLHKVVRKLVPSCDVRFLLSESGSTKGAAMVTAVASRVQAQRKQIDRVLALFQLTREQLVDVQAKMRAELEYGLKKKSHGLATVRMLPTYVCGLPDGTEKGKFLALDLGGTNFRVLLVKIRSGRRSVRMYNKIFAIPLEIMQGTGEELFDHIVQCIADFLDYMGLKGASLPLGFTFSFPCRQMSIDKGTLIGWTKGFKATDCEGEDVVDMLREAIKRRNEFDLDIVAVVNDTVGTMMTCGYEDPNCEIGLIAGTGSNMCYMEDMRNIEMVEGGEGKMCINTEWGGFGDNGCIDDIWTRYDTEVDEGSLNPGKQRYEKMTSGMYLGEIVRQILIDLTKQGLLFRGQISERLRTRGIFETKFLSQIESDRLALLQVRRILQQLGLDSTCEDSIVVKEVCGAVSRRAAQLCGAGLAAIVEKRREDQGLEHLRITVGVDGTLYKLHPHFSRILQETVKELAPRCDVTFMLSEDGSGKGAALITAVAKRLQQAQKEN
The experiment in a line: HKDC1 hexokinase inhibitors, dose response, biochemical, W721R variant (AID 504729). It counts as functional.

Assay [13] is described as follows: Counterscreen for AddAB inhibitors: absorbance-based bacterial cell-based high throughput dose response assay for inhibitors of bacterial viability. [Related pubchem assays (depositor defined):AID435030, AID449728, AID449731, AID488942, AID488955, AID488956]. The format is functional.
The next assay has as its target Exodeoxyribonuclease V (Escherichia coli (strain K12), UniProt P04993+P07648+P08394). The assay is described as follows: E. coli RecBCD inhibitors, dose response, counter-screen for AddAB inhibitor project, absorbance, V66 E. coli, mutant T4 phage (AID 492957). The format is functional, cell-based, Escherichia coli str. K-12 substr. MG1655.
A further assay addresses T3, Streptokinase A (Streptococcus pyogenes serotype M1, UniProt P10520).
T3 sequence (P10520 whole entry): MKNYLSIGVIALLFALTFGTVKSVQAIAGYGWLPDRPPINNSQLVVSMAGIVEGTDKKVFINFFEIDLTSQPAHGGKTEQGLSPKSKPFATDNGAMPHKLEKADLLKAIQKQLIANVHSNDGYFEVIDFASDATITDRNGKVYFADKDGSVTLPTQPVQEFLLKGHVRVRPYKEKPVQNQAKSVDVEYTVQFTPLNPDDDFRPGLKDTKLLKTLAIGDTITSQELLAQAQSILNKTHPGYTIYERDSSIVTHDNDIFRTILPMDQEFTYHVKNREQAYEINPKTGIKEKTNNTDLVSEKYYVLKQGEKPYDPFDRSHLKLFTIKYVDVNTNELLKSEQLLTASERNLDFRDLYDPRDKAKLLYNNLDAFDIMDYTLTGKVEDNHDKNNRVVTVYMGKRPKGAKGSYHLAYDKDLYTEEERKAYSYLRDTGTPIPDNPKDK
The assay is described as follows: S. pyogenes streptokinase expression inhibitors, potency, dose response, plasminogen activation absorbance, OD405 (AID 1914).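 Further: secreted streptokinase activity via plasminogen activation per viability signal from cell pellet.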 The format is functional, Streptococcus pyogenes M1 GAS.

Assay [14] concerns HEK293. The experiment in a line: cells. It counts as functional, cell-based. The following applies: Homo sapiens.
Assay [15] concerns Streptococcus sp. 'group A'. The experiment in a line: growth inhibition of control SK(-) GAS strain, dose response, counter-screen for streptokinase expression inhibitor project, luminescence, kanamycin, BacTiterGlo, confirmation (AID 1900). It counts as functional, organism-based.
Assay [16] has as its system HEK293. The assay is described as follows: NOD2 signaling inhibitors in MDP-stimulated cells, cell-based, uHTS, luminescence (AID 2001). The format is functional. The following applies: Homo sapiens.
A further assay concerns Streptococcus. The experiment in a line: Group A Streptococcus viability loss, dose response, counter-screen for streptokinase expression inhibitor project, luminescence, BacTiterGlo (AID 1915).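 Further: potency for reduction of bacterial viability or growth.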 The format is functional, organism-based.
Assay [17] relates to HEK293. The assay is described as follows: NOD1 signaling inhibitors, primary screen, cell-based, luminescence, uHTS (AID 1578). It counts as functional. The following applies: Homo sapiens.
Assay [18] relates to HEK293. The assay is described as follows: cells. It counts as functional, cell-based. The following applies: Homo sapiens. The source holds these as a separate data set.
The subject of the next assay is INS1. The experiment in a line: beta cell apoptosis inhibitors, cytokine rescue, dose response, luminescence, retest (AID 449756).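 Further: cell death triggered by IL-1 beta plus TNF-alpha plus IFN-gamma mixture; protective hits raise ATP signal compared with cytokine alone wells.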 The following applies: Rattus norvegicus. It counts as functional, cell-based.
Assay [19] is described as follows: human group III sPLA2 inhibitors, dose response, biochemical, QFRET, IC50 (AID 743457).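 Further: green fluorescence rise as the enzyme cleaves BODIPY PC-A2 in liposomes; potency for inhibition of the enzyme.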
Assay [20] is described as follows: off-target signal loss in HeLa-CEM21 co-culture – HeLa F-luc CTL cells, cherry-picked, counter-screen for HIV-1 Env fusion inhibitor project, dose response (AID 652040).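 Further: potency for signal decrease marking cytotoxic or nonspecific inhibition.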 It counts as functional, cell-based.
The next assay has as its target SUMO-activating enzyme (Homo sapiens, UniProt Q9UBT2). The experiment in a line: SUMOylation inhibitor hit validation, confirmation, SUMOylation inhibitor project, biochemical, AlphaScreen (AID 2018). It counts as functional. On the technique in general: Alpha assays give light when donor and acceptor beads are brought close together.

Exodeoxyribonuclease V, sequence (P04993 whole entry): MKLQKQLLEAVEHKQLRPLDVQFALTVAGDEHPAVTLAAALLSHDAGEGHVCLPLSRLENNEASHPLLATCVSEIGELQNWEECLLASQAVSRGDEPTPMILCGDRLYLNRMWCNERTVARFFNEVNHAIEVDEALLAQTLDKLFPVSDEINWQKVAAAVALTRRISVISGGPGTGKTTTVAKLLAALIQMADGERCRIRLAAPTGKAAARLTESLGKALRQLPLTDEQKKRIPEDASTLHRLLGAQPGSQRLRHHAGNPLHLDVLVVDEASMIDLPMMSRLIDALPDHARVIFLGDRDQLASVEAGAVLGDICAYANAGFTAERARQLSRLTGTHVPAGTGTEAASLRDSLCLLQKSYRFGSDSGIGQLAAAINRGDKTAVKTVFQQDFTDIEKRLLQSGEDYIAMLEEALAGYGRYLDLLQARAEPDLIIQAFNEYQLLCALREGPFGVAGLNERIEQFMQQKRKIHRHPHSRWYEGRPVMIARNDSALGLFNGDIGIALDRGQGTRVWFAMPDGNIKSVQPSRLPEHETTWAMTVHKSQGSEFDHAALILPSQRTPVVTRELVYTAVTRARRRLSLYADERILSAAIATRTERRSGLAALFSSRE
Exodeoxyribonuclease V, sequence (P07648 whole entry): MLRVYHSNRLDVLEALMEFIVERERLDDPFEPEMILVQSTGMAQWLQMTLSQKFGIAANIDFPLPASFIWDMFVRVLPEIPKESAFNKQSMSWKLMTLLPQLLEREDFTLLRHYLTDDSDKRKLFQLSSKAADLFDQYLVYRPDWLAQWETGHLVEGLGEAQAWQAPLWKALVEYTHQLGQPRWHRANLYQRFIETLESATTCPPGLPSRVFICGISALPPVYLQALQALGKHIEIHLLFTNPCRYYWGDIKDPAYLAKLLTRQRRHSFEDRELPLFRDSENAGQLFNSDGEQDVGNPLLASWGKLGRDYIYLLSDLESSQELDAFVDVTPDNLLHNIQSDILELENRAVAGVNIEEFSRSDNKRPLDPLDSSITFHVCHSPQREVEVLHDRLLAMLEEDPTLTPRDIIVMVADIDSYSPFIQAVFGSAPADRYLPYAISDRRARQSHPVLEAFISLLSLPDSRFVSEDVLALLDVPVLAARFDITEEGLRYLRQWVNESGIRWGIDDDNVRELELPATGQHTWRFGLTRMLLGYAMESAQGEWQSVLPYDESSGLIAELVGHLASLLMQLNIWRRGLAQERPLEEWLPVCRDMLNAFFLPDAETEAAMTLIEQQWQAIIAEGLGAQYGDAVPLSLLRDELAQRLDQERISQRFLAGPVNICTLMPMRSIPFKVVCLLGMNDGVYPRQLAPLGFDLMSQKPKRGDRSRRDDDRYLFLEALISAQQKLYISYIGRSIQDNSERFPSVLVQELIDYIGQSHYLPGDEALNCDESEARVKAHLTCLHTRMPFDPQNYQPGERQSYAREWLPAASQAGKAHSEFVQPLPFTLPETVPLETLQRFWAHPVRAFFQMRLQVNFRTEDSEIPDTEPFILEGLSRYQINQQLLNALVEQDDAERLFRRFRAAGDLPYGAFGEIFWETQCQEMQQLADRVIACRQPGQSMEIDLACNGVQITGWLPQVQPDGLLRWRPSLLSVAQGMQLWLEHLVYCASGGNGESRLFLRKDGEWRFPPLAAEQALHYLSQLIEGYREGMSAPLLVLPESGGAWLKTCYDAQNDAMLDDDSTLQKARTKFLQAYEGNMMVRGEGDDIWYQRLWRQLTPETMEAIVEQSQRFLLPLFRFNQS
Exodeoxyribonuclease V, sequence (P08394 whole entry): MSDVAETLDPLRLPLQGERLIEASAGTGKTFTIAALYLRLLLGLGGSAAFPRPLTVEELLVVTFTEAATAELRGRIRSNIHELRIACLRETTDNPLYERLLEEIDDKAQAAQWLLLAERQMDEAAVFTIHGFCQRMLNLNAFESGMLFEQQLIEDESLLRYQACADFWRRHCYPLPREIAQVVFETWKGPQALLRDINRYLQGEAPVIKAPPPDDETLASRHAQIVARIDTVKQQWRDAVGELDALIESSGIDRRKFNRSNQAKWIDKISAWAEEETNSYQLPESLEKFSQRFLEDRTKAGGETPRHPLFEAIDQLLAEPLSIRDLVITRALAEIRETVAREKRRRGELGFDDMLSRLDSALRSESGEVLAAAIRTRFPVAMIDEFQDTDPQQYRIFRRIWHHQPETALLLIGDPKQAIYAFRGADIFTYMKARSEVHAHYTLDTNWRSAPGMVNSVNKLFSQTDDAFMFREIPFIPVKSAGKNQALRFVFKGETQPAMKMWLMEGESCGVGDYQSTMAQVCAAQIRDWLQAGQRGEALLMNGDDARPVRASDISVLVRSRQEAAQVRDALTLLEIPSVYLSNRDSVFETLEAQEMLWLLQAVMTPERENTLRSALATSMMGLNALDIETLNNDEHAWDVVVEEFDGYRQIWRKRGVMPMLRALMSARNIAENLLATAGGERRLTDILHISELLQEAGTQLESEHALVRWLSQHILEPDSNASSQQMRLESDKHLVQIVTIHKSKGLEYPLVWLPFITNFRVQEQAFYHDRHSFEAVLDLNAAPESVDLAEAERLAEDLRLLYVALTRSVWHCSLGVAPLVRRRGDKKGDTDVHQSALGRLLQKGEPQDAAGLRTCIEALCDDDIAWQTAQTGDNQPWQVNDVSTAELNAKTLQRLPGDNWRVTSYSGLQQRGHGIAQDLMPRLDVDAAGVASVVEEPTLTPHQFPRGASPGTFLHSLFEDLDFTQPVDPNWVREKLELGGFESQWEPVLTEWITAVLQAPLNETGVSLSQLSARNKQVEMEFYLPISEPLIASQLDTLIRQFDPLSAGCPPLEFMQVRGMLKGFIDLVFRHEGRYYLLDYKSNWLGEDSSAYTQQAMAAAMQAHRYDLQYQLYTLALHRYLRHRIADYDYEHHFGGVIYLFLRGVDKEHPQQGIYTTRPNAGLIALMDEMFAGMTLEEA
SUMO-activating enzyme, sequence (Q9UBE0 whole entry): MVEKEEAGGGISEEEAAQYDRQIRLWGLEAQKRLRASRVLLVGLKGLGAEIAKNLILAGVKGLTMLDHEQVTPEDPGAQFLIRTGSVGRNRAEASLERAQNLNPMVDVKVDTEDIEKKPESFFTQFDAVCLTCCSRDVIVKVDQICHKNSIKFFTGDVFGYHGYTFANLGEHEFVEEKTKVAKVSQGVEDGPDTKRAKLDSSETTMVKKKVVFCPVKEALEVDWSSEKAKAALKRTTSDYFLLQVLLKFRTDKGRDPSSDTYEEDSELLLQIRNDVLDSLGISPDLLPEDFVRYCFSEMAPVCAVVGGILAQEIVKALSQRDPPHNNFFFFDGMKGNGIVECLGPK
SUMO-activating enzyme, sequence (Q9UBT2 whole entry): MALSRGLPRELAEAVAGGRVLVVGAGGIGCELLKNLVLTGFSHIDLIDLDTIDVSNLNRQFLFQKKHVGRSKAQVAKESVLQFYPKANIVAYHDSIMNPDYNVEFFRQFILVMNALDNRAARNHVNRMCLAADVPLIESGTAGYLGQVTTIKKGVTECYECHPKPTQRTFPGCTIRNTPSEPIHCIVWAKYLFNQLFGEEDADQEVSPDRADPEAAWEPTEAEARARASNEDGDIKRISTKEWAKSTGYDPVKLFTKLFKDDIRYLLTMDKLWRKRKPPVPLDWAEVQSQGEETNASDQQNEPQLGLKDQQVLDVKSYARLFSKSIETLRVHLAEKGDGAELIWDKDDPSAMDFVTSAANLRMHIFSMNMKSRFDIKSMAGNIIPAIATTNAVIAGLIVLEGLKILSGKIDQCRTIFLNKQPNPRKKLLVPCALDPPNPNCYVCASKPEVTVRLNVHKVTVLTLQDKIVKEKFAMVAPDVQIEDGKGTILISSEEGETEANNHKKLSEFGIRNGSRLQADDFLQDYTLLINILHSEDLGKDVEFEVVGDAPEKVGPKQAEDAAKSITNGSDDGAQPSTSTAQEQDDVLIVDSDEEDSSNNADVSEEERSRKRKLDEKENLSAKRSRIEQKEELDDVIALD

Consider `CCCCCn1c2c(c(=N)c3ccccc31)CCC2`, for which the EC50 in assay [1] is 0.788 µM (active); in assay [2], < 0.1 µM (active); in “cells”, 0.006 µM (active); in assay [6] it was > 112 µM (not active); in assay [7], 1.5 µM (active); in [9], > 60 µM (not active). The half-maximal inhibitory concentration (IC50) is 5.93 µM (active) in [3]; 2.62 µM (active) in assay [4]; > 80 µM (inactive) in assay [5]; 3.19 µM (active) in assay [8]; > 100 µM (inactive) in assay [10].

As for `Cc1nn(-c2nccs2)c2c1C(=O)CC(C)(C)C2Br` (stereo not given), in assay [11], the AC50 is 7.37 µM (active).

With `COc1ccccc1Nc1nc(-c2c(C)[nH]c3ccccc23)cs1`, the concentration at half-maximal activity (AC50) in assay [12] was 19.4 µM (active).

For the molecule `Cc1cc2cc(CCNC(=O)c3ccc(S(=O)(=O)N4CCCC4)cc3)c(O)nc2cc1C`, the IC50 on Hexokinase HKDC1 is 13.6 µM (active).

In the case of `CCOC(=O)c1cn(CC)c2cc(N3CCSCC3)c(F)cc2c1=O`, the results for the IC50 (in [13]; on Exodeoxyribonuclease V) were 63.8 µM (inactive) and > 119 µM (inactive), respectively.

As for `C=CCSc1nsc(NC(=O)Nc2ccc(F)cc2)n1`, the EC50 was 23.4 µM (active) on Streptokinase A, 8.13 µM (active) in assay [15], 30.4 µM (active) with Streptococcus and 3.56 µM (active) in the assay with HEK293 [17]. Further, the IC50 in the assay with HEK293 [14] was 10.1 µM (active); in the assay with HEK293 [16], 2.93 µM (active); in assay [13] it was > 119 µM (inactive); with HEK293 [18], 2.64 µM (active); on Exodeoxyribonuclease V it was > 119 µM (inactive). The AC50 in the assay on INS1 was 3.1 µM (active).

Regarding `CCOc1ccc2c(c1)-c1c(ssc1=S)C(C)(C)N2C(=O)c1ccco1`, the IC50 in [19] was 46.2 µM (inactive). Further, the figures for the AC50 in assay [12] and in assay [20] were 13.7 µM (active) and 17.6 µM (active), respectively.

`CCCCOc1ccc(/C=C/C(=O)Nc2ccc(C(N)=O)cc2)cc1`: the IC50 on SUMO-activating enzyme is 96.7 µM (active).
